Laboratory results published in the supplement of paper PMC8671470.

Columns and labels:
Conditions in all cases: 72 h
NOMO-1 [1] = assay: cell viability (% survival relative to DMSO control, bortezomib = 0%); higher = less cytotoxic
Method in brief: (§1)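 Reported values are percent survival from duplicate wells, averaged. Fifteen myeloid leukaemia cell lines were treated in 384-well plates with compounds at 1, 10, 100, 1000 or 10000 nM for 72 h at 37 °C in 5% CO2. Signals from CellTiter-Glo luminescence were scaled with vehicle as 100% and a 10 µM positive control as 0%.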

BV-173 [2] = assay: as above
Method in brief: as §1

KG-1 [3] = assay: as above
Method in brief: as §1

ML-2 [4] = assay: as above
Method in brief: as §1

Mono-Mac-6 [5] = assay: as above
Method in brief: as §1

LAMA-84 [6] = assay: as above
Method in brief: as §1

MOLM-13 [7] = assay: as above
Method in brief: as §1

SHI-1 [8] = assay: as above
Method in brief: as §1

K-562 [9] = assay: as above
Method in brief: as §1

HEL [10] = assay: as above
Method in brief: as §1

KU-812 [11] = assay: as above
Method in brief: as §1

KCL-22 [12] = assay: as above
Method in brief: as §1

HL-60 [13] = assay: as above
Method in brief: as §1

THP-1 [14] = assay: as above
Method in brief: as §1

MV4-11 [15] = assay: as above
Method in brief: as §1

NOMO-1 [16] = system: NOMO-1
Method in brief: (§2)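 Fifteen myeloid leukaemia cell lines were seeded in RPMI 1640 at a density titrated to the linear growth range. Each line went into 384-well plates with compounds acoustically pre-printed at five tenfold doses from 1 to 10,000 nM, in duplicate, and was incubated for 72 h at 37 °C with 5% CO2. Luminescent ATP viability was normalised to vehicle and to a positive control at 10 µM. The IC50 came from four-parameter log-logistic dose–response fits.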

BV-173 [17] = system: BV-173
Method in brief: as §2

KG-1 [18] = system: KG-1
Method in brief: as §2

ML-2 [19] = system: ML-2
Method in brief: as §2

Mono-Mac-6 [20] = system: Mono-Mac-6
Method in brief: as §2

LAMA-84 [21] = system: LAMA-84
Method in brief: as §2

MOLM-13 [22] = system: MOLM-13
Method in brief: as §2

SHI-1 [23] = system: SHI-1
Method in brief: as §2

K-562 [24] = system: K-562
Method in brief: as §2

HEL [25] = system: HEL
Method in brief: as §2

KU-812 [26] = system: KU-812
Method in brief: as §2

KCL-22 [27] = system: KCL-22
Method in brief: as §2

HL-60 [28] = system: HL-60
Method in brief: as §2

THP-1 [29] = system: THP-1
Method in brief: as §2

MV4-11 [30] = system: MV4-11
Method in brief: as §2

COc1cc(/C=C/c2ccc(OC)cc2OC)cc(OC)c1 [2,3',4,5'-Tetramethoxystilbene]
cell viability [%]
Conditions	1 nM	10 nM	100 nM	1000 nM	10000 nM
BV-173 [2]	104	104	99.1	103	79.6
HEL [10]	106	106	99.2	103	106
HL-60 [13]	109	86.2	96.2	105	81.2
K-562 [9]	108	113	106	101	89.5
KCL-22 [12]	94.7	110	98.7	106	104
KG-1 [3]	94.9	110	91.9	101	79.7
KU-812 [11]	101	95.5	96.9	97.4	76.8
LAMA-84 [6]	103	104	99.4	96.4	94.3
ML-2 [4]	80.1	102	102	115	72.9
MOLM-13 [7]	105	105	86.4	107	100
MV4-11 [15]	103	106	98.4	98.4	86
Mono-Mac-6 [5]	94.6	97.2	95.3	100	104
NOMO-1 [1]	97.5	106	95.7	108	94.9
SHI-1 [8]	99.7	123	99.4	104	98.9
THP-1 [14]	97.3	107	108	109	75.3

Conditions	IC50 (cell viability) [µM]
BV-173 [17]	> 10
HEL [25]	> 10
HL-60 [28]	> 10
K-562 [24]	> 10
KCL-22 [27]	> 10
KG-1 [18]	> 10
KU-812 [26]	> 10
LAMA-84 [21]	> 10
ML-2 [19]	> 10
MOLM-13 [22]	> 10
MV4-11 [30]	> 10
Mono-Mac-6 [20]	> 10
NOMO-1 [16]	> 10
SHI-1 [23]	> 10
THP-1 [29]	> 10

CC(C)(O)CNc1nc(Nc2ccnc(C(F)(F)F)c2)nc(-c2cccc(C(F)(F)F)n2)n1 [Enasidenib]
cell viability [%]
Conditions	1 nM	10 nM	100 nM	1000 nM	10000 nM
BV-173 [2]	101	90.7	121	98.4	90
HEL [10]	106	106	123	111	85.6
HL-60 [13]	118	108	118	99.1	106
K-562 [9]	93.1	98.3	98.3	95.2	82.5
KCL-22 [12]	89.2	102	113	97.4	93.6
KG-1 [3]	103	95	107	92.8	117
KU-812 [11]	92.4	97.2	103	90	93.2
LAMA-84 [6]	101	94.8	99.1	104	103
ML-2 [4]	109	100	113	97.3	68.8
MOLM-13 [7]	83.9	90.8	98.5	101	103
MV4-11 [15]	101	88.9	112	103	81.1
Mono-Mac-6 [5]	94.8	100	113	107	126
NOMO-1 [1]	98.3	98.8	107	93.6	92.9
SHI-1 [8]	109	105	114	113	109
THP-1 [14]	101	103	114	93.5	97.5

Conditions	IC50 (cell viability) [µM]
BV-173 [17]	> 10
HEL [25]	> 10
HL-60 [28]	> 10
K-562 [24]	> 10
KCL-22 [27]	> 10
KG-1 [18]	> 10
KU-812 [26]	> 10
LAMA-84 [21]	> 10
ML-2 [19]	> 10
MOLM-13 [22]	> 10
MV4-11 [30]	> 10
Mono-Mac-6 [20]	> 10
NOMO-1 [16]	> 10
SHI-1 [23]	> 10
THP-1 [29]	> 10
